9 substances from patent US7384636B2, “Polypeptide” (Kabushiki Kaisha Hayashibara Seibutsu Kagaku Kenkyujo, priority 2003, dated 2008) can be followed below.

Common to all, as to type: in vivo
The subject of experiment [1] is the immunized peptide. Description: Titer against the immunized peptide, B10 mice immunized intranasally (Experiment 7). The note with it: intranasal, with or without CT. How it is done: (§1) All the mice were bled after one week.
(§2) As a negative control, DUP was prepared.

For experiment [2], the system named is OMP. Description: Titer against OMP, B10 mice immunized intranasally (Experiment 7). The following applies: intranasal, with or without CT. How it is done:
as §1, §2

The test system of experiment [3] is the immunized polypeptide. Description: Titer against the immunized peptide, BALB/c mice immunized intraperitoneally (Experiment 5). The following applies: intraperitoneal.
Description: as §1

Experiment [4] relates to OMP. Description: Titer against OMP, BALB/c mice immunized intraperitoneally (Experiment 5). The note with it: intraperitoneal.
Description: as §1

In experiment [5] the test system is the immunized peptide. Description: Titer against the immunized peptide, BALB/c mice immunized intranasally (Experiment 8). The note with it: intranasal. How it is done:
as §1, §2

Experiment [6] concerns OMP. Description: Titer against OMP, BALB/c mice immunized intranasally (Experiment 8). The note with it: intranasal. Here is the method:
as §1, §2

For the substance “OMP-RGD-KK-UP: SEQ ID NO:33, RGD at C-terminal side of OMP (LAVYWELLAKYLLDRVQKVARGDKKTYEAALKQYEADL; OMP-RGD-KK-UP)”, the “Titer against the immunized peptide” value in the experiment with the immunized peptide [1] is 24,370. In addition, the “Titer against OMP” value in the experiment on OMP [2] came out at 16.

On to “UP-KK-OMP: SEQ ID NO:21, KK inserted between UP and OMP (TYEAALKQYEADLKKLAVYWELLAKYLLDRVQKVA; UP-KK-OMP)”, for which, in experiment [3], the “Titer against the immunized peptide” value is on record as 29,921. In the experiment with OMP [4], the “Titer against OMP” value was 1,211.

As to “RGD-OMP-KK-UP: SEQ ID NO:32, RGD at N-terminal side of OMP in OMP-KK-UP (RGDLAVYWELLAKYLLDRVQKVAKKTYEAALKQYEADL; RGD-OMP-KK-UP)”, the “Titer against the immunized peptide” value in the experiment with the immunized peptide [1] is 11,514. Also, the “Titer against OMP” value with OMP [2] stood at 32.

For the substance “OMP-KK-RGD-UP: SEQ ID NO:34, RGD at N-terminal side of UP (LAVYWELLAKYLLDRVQKVAKKRGDTYEAALKQYEADL; OMP-KK-RGD-UP)”, the “Titer against the immunized peptide” value in the experiment with the immunized peptide [1] is given as 723. Besides, the “Titer against OMP” value in the experiment with OMP [2] came out at 16.

“OMP-KK-UP: SEQ ID NO:20, KK inserted between OMP and UP (LAVYWELLAKYLLDRVQKVAKKTYEAALKQYEADL; OMP-KK-UP)”: the “Titer against the immunized peptide” value in experiment [3] is on record as 782,685; in the experiment on the immunized peptide [1] it was 128. Besides, the entries for the “Titer against OMP” value in the experiment on OMP [2] and in the experiment on OMP [4] were 32 and 1,731, respectively.

On to “OMP-KK-UP-RGD: SEQ ID NO:35, RGD at C-terminal side of UP (LAVYWELLAKYLLDRVQKVAKKTYEAALKQYEADLRGD; RGD-KK-UP-RGD)”, for which the “Titer against the immunized peptide” value in the experiment on the immunized peptide [1] is 9,483. Besides, the “Titer against OMP” value with OMP [2] is on record as 16.

Consider “OMP-KK-OVAp: SEQ ID NO:40, control, OMP linked by KK to OVA peptide fragment (LAVYWELLAKYLLDRVQKVAKKISQAVHAAHAEINE; OMP-KK-OVAp)”, for which, in the experiment with the immunized peptide [5], the “Titer against the immunized peptide” value is 1,589. Further, the “Titer against OMP” value in the experiment on OMP [6] is 108.

In the case of “T1-RGD-KK-UP: SEQ ID NO:39, T1 T cell epitope, RGD, KK linker, UP (KQIINMWQAVGKAMYARGDKKTYEAALKQYEADL; T1-RGD-KK-UP)”, in the experiment with the immunized peptide [5], the “Titer against the immunized peptide” value was 1,707.

In the case of “T1-KK-UP: SEQ ID NO:41, control, T1 peptide of HIV IIIB gp120 linked by KK to UP (KQIINMWQAVGKAMYAKKTYEAALKQYEADL; T1-KK-UP)”, the “Titer against the immunized peptide” value in the experiment on the immunized peptide [5] turned out to be 160.
